Results: patent US11873290B2, “Pyridazinone compounds and uses thereof” (Edgewise Therapeutics, Inc., priority 2018, dated 2024)

These compounds were tested against skeletal myofibrils (myosin ATPase activity) (assay: Skeletal Myofibril ATPase Assay). Conditions: PK-LDH coupled, absorbance at 340 nm.
Type: biochemical
How it was run: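 Skeletal myofibril ATPase measured by PK-LDH-coupled NADH depletion at 340 nm, read every 1.5–2 min for 1 h; pCa buffer with PIPES/CaCl2/EGTA, pH 7.0. Rate taken as max–min absorbance, normalised to 1% DMSO vehicle (100%) and no change (0%); IC50 from four-parameter fit, bottom ≥0.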
For COc1cncc(Cn2nc(-c3cnc(OCC(F)(F)F)nc3)ccc2=O)c1 [Compound 128, 2-((5-methoxypyridin-3-yl)methyl)-6-(2-(2,2,2-trifluoroethoxy)pyrimidin-5-yl)pyridazine-3(2H)-one], the IC50 was less than 10 µM. For CCc1ncc(Cn2nc(-c3cnc(OCC(C)(F)F)nc3)ccc2=O)s1 [Compound 129, 6-(2-(2,2-difluoropropoxy)pyrimidin-5-yl)-2((2-ethylthiazol-5-yl)methyl)pyridazine-3(2H)-one], the IC50 was less than 10 µM. In the case of Cc1ncc(Cn2nc(-c3cnc(OCC(C)C)nc3)ccc2=O)s1 [Compound 130, 6-(2-isobutoxypyrimidin-5-yl)-2-((2-methylthiazol-5-yl)methyl)pyridazine-3(2H)-one], the IC50 is reported as less than 10 µM. Compound [2H]C(C)(C)COc1ncc(-c2ccc(=O)n(Cc3cncc(F)c3)n2)cn1 [Compound 131, 2-((5-fluoropyridin-3-yl)methyl)-6-(2-(2-methylpropoxy-2-d)pyrimidin-5-yl)pyridazin-3(2H)-one] has an IC50 of less than 10 µM. COc1ccc(Cn2nc(-c3cnc(OCC(F)(F)F)nc3)ccc2=O)cn1 [Compound 132, 2-((6-methoxypyridin-3-yl)methyl)-6-(2-(2,2,2-trifluoroethoxy)pyrimidin-5-yl)pyridazine-3(2H)-one] gave an IC50 of less than 10 µM. In the case of CCc1cncc(Cn2nc(-c3cnc(OCC(F)(F)F)nc3)ccc2=O)c1 [Compound 137, 2-((5-ethylpyridin-3-yl)methyl)-6-(2-(2,2,2-trifluoroethoxy)pyrimidin-5-yl)pyridazine-3(2H)-one], the IC50 is reported as less than 10 µM. O=c1ccc(-c2cnc(OCc3ccccc3)nc2)nn1Cc1cncc(F)c1 [Compound 138] was tested, and the IC50 was less than 10 µM. In the case of O=c1ccc(-c2ccc(OC(F)F)cc2)nn1Cc1nnc(-c2ccccc2)s1 [Compound 201, 6-(4-(difluoromethoxy)phenyl)-2-((5-phenyl-1,3,4-thiadiazol-2-yl)methyl)pyridazin-3(2H)-one], the IC50 is reported as less than 10 µM. For O=c1ccc(-c2ccc(OC(F)F)cc2)nn1Cc1nc(-c2ccccc2)no1 [Compound 202, 6-(4-(difluoromethoxy)phenyl)-2-((3-phenyl-1,2,4-oxadiazol-5-yl)methyl)pyridazine-3(2H)-one], the IC50 was less than 10 µM. In the case of O=c1ccc(-c2ccc(OC(F)F)cc2)nn1Cc1nc2ccccc2o1 [Compound 203, 2-(benzo[d]oxazol-2-ylmethyl)-6-(4-(difluoromethoxy)phenyl) pyridazine-3(2H)-one], the IC50 is reported as less than 10 µM. Cc1cc(Cn2nc(-c3ccc(OC(F)F)cc3)ccc2=O)on1 [Compound 204, 6-(4-(difluoromethoxy)phenyl)-2-((3-methylisoxazol-5-yl)methyl)pyridazine-3(2H)-one] gave an IC50 of less than 10 µM. Cc1csc(Cn2nc(-c3ccc(OC(F)F)cc3)ccc2=O)n1 [Compound 205, 6-(4-(difluoromethoxy)phenyl)-2-((4-methylthiazol-2-yl)methyl) pyridazine-3(2H)-one] was tested, and the IC50 was less than 10 µM. O=c1ccc(-c2ccc(OC(F)F)cc2)nn1Cc1cc(C2CC2)no1 [Compound 206, 2-((3-cyclopropylisoxazol-5-yl)methyl)-6-(4-(difluoromethoxy)phenyl) pyridazine-3(2H)-one] gave an IC50 of less than 10 µM. With O=c1ccc(-c2ccc(OC(F)F)cc2)nn1Cc1nc(C2CC2)no1 [Compound 208, 2((3-cyclopropyl-1,2,4-oxadiazol-5-yl)methyl)-6-(4-(difluoromethoxy)phenyl) pyridazine-3(2H)-one] the IC50 was less than 10 µM. CCc1cc(Cn2nc(-c3ccc(OC(F)F)cc3)ccc2=O)on1 [Compound 209, 6-(4-(difluoromethoxy)phenyl)-2-((3-ethylisoxazol-5 - yl)methyl)pyridazin-3(2H)-one] gave an IC50 of less than 10 µM. In the case of O=c1ccc(-c2ccc(OC(F)F)cc2)nn1Cc1nc(C2CC2)cs1 [Compound 210, 2-((4-cyclopropylthiazol-2-yl)methyl)-6-(4-(difluoromethoxy)phenyl) pyridazine-3(2H)-one], the IC50 is reported as less than 10 µM. Compound O=c1ccc(-c2ccc(OC(F)F)cc2)nn1Cc1ccc(Cl)cn1 [Compound 211, 2-((5-chloropyridin-2-yl)methyl)-6-(4-(difluoromethoxy)phenyl)-pyridazin-3(2H)-one] has an IC50 of 10 to 100 µM. In the case of O=c1ccc(-c2ccc(OC(F)F)cc2)nn1Cc1nnc(-c2ccccc2)o1 [Compound 212, 6-(4-(difluoromethoxy)phenyl)-2-((5-phenyl-1,3,4-oxadiazol-2-yl)methyl)pyridazin-3(2H)-one], the IC50 is reported as 10 to 100 µM. For CCc1noc(Cn2nc(-c3ccc(OC(F)F)cc3)ccc2=O)n1 [Compound 213, 6-(4-(difluoromethoxy)phenyl)-2-((3-ethyl-1,2,4-oxadiazol-5-yl)methyl)pyridazin-3(2H)-one], the IC50 was 10 to 100 µM. With O=c1ccc(-c2ccc(OC(F)F)cc2)nn1Cc1nc(C2CC2)co1 [Compound 214, 2-((4-cyclopropyloxazol-2-yl)methyl)-6-(4-(difluoromethoxy)phenyl)-pyridazin-3(2H)-one] the IC50 was 10 to 100 µM. In the case of O=c1ccc(-c2ccc(OC(F)F)cc2)nn1Cc1nnc(C(F)(F)F)o1 [Compound 215, 6-(4-(difluoromethoxy)phenyl)-2-((5-(trifluoromethyl)-1,3,4-oxadiazol-2-yl)methyl)pyridazin-3(2H)-one], the IC50 is reported as 10 to 100 µM. In the case of Cc1noc(Cn2nc(-c3ccc(OC(F)F)cc3)ccc2=O)n1 [Compound 216, 6-(4-(difluoromethoxy)phenyl)-2-((3-methyl-1,2,4-oxadiazol-5-yl)methyl)pyridazin-3(2H)-one], the IC50 is reported as 10 to 100 µM. In the case of O=c1ccc(-c2ccc(OC(F)F)cc2)nn1Cc1nnc(C2CC2)s1 [Compound 217, 2-((5-cyclopropyl-1,3,4-thiadiazol-2-yl)methyl)-6-(4-(difluoromethoxy)phenyl)-pyridazin-3(2H)-one], the IC50 is reported as 10 to 100 µM. For Cc1coc(Cn2nc(-c3ccc(OC(F)F)cc3)ccc2=O)n1 [Compound 218, 6-(4-(difluoromethoxy)phenyl)-2-((4-methyloxazol-2-yl)methyl)pyridazin-3(2H)-one], the IC50 was 10 to 100 µM. O=c1ccc(-c2ccc(OC(F)F)cc2)nn1Cc1nnc(C2CC2)o1 [Compound 219] showed an IC50 of 10 to 100 µM. In the case of O=c1ccc(-c2ccc(OC(F)F)cc2)nn1Cc1cncnc1 [Compound 220, 6-(4-(difluoromethoxy)phenyl)-2-(pyrimidin-5-ylmethyl)pyridazin-3(2H)-one], the IC50 is reported as 10 to 100 µM. In the case of Cc1nnc(Cn2nc(-c3ccc(OC(F)F)cc3)ccc2=O)o1 [Compound 222, 6-(4-(difluoromethoxy)phenyl)-2-((5-methyl-1,3,4-oxadiazol-2-yl)methyl)pyridazin-3(2H)-one], the IC50 is reported as 10 to 100 µM. Cc1nnc(Cn2nc(-c3ccc(OC(F)F)cc3)ccc2=O)s1 [Compound 223, 6-(4-(difluoromethoxy)phenyl)-2-((5-methyl-1,3,4-thiadiazol-2-yl)methyl)pyridazin-3(2H)-one] was tested, and the IC50 was 10 to 100 µM. Cc1cnc(Cn2nc(-c3ccc(OC(F)F)cc3)ccc2=O)[nH]1 [Compound 224, 6-(4-(difluoromethoxy)phenyl)-2-((5-methyl-1H-imidazol-2-yl)methyl)pyridazin-3(2H)-one] showed an IC50 greater than 100 µM. O=c1ccc(-c2ccc(OC(F)F)cc2)nn1Cc1ccncn1 [Compound 225, 6-(4-(difluoromethoxy)phenyl)-2-(pyrimidin-4-ylmethyl)pyridazin-3(2H)-one] was tested, and the IC50 was greater than 100 µM. Work on O=c1ccc(-c2ccc(OC(F)F)cc2)nn1Cc1nccn1CC(F)(F)F [Compound 226, 6-(4-(difluoromethoxy)phenyl)-2-((1-(2,2,2-trifluoroethyl)-1H-imidazol-2-yl)methyl)pyridazin-3(2H)-one] yielded an IC50 greater than 100 µM. Work on Cc1nnc(Cn2nc(-c3ccc(OC(F)F)cc3)ccc2=O)[nH]1 [Compound 227, 6-(4-(difluoromethoxy)phenyl)-2-((5-methyl-4H-1,2,4-triazol-3-yl)methyl)pyridazin-3(2H)-one] yielded an IC50 greater than 100 µM. For O=c1ccc(-c2ccc(OC(F)F)cc2)nn1Cc1nnc(C2CC2)[nH]1 [Compound 228, 2-((5-cyclopropyl-4H-1,2,4-triazol-3-yl)methyl)-6-(4-(difluoromethoxy)phenyl)-pyridazin-3(2H)-one], the IC50 was greater than 100 µM. O=c1ccc(-c2ccc(OC(F)F)cc2)nn1Cc1nnc(C(F)(F)F)s1 [Compound 229, 6-(4-(difluoromethoxy)phenyl)-2-((5-(trifluoromethyl)-1,3,4-thiadiazol-2-yl)methyl)pyridazin-3(2H)-one] showed an IC50 greater than 100 µM. For O=c1ccc(-c2ccc(OC(F)F)cc2)nn1Cc1nc2ccccc2[nH]1 [Compound 230, 2-((1H-benzo[d]imidazol-2-yl)methyl)-6-(4-(difluoromethoxy)phenyl)-pyridazin-3(2H)-one], the IC50 was greater than 100 µM. O=c1ccc(-c2ccc(OC(F)F)cc2)nn1Cc1ncccn1 [Compound 232, 6-(4-(difluoromethoxy)phenyl)-2-(pyrimidin-2-ylmethyl)pyridazin-3(2H)-one] gave an IC50 greater than 100 µM. Work on O=c1[nH]nc(Cn2nc(-c3ccc(OC(F)F)cc3)ccc2=O)o1 [Compound 234, 5-((3-(4-(difluoromethoxy)phenyl)-6-oxopyridazin-1(6H)-yl)methyl)-1,3,4-oxadiazol-2(3H)-one] yielded an IC50 greater than 100 µM. Work on Nc1nnc(Cn2nc(-c3ccc(OC(F)F)cc3)ccc2=O)o1 [Compound 235, 2-((5-amino-1,3,4-oxadiazol-2-yl)methyl)-6-(4-(difluoromethoxy)phenyl)-pyridazin-3(2H)-one] yielded an IC50 greater than 100 µM. O=c1ccc(-c2ccc(OC(F)F)cc2)nn1Cc1nnc(C(F)(F)F)[nH]1 [Compound 236, 6-(4-(difluoromethoxy)phenyl)-2-((5-(trifluoromethyl)-4H-1,2,4-triazol-3-yl)methyl)pyridazin-3(2H)-one] was tested, and the IC50 was greater than 100 µM. With O=c1ccc(-c2ccc(OC(F)F)cc2)nn1Cc1nc(-c2ccccc2)co1 [Compound 237, 6-(4-(difluoromethoxy)phenyl)-2-((4-phenyloxazol-2-yl)methyl)pyridazin-3(2H)-one] the IC50 was 10 to 100 µM. For O=c1ccc(-c2ccc(OCC(F)(F)F)cc2)nn1Cc1cncc(F)c1 [Compound 238, 2-((5-fluoropyridin-3-yl)methyl)-6-(4-(2,2,2-trifluoroethoxy)phenyl) pyridazin-3(2H)-one], the IC50 was less than 10 µM.
